Read-outs that look alike come from different tables or passages of the source.
Tested on: ALP in normal human articular chondrocytes (NHACs)
Experiment: Alkaline Phosphatase (ALP) activity assay (staining and quantitation) in NHACs, prevention of chondrocyte hypertrophy
Type: cell-based
Conditions: human IL-1 beta 10 ng/mL, 12 days; for IC50: Fast Blue RR staining, high content imaging, read-out: ALP in NHAC IC50; for Emax / ALP in NHAC (% Efficacy): value in parentheses; for Emax: read-out: ALP in NHAC (% Efficacy)
Method: The compounds of the present invention were evaluated in the Alkaline Phosphatase (ALP) activity assay to determine the ability of the compounds to prevent chondrocyte hypertrophy in normal human articular chondrocytes (NHACs).
Normal human articular chondrocytes (NHACs) were purchased from PromoCell (Heidelberg, Germany) and grown in Chondrocyte Growth Medium (CGM; Lonza, Walkersville, Md.).
NHACs were expanded in Chondrocyte Growth Medium (CGM) from Lonza until they reached a 60-80% confluency. To initiate differentiation, 7,500 cells were plated/well with indicated test compound dose in 384-well Cell Carrier Ultra plates (Perkin Elmer) with DMEM (SH30022—HyClone) containing 10% FBS (35-015-CV—Corning), 1% Pen/Strep antibiotics (SV30010—HyClone), and 1% Normocin (50 mg/mL—InvivoGen). Cells with test compounds were incubated at 37° C., 5% CO2 for 5 hours and then added human IL-1 beta (AF-200-1B—Peprotech) to each well at a final concentration of 10 ng/mL and incubated at 37° C., 5% CO2 for 12 days.
To detect the presence of hypertrophic cells, NHACs were fixed with 4% paraformaldehyde and Hoechst 33342 (Invitrogen) dye for 30 minutes, rinsed in PBS, then stained with Fast Blue RR Salt (F0500—Sigma) with Naphthol AS-MX Phosphate Alkaline Solution, 0.25% (855—Sigma-Aldrich).
The staining was imaged by fluorescent microscopy, using the 561 nm wavelength, and/or quantified by high content imaging with the Image press Confocal (Molecular Devices, Sunnyvale, Calif.). Data analyses were performed with a customized multiwavelength cell-scoring application.

Structure (SMILES)	IC50 (Chondrocyte, 288 h) [µM]	Emax (Chondrocyte, 288 h) [%]	other results
Cn1cc([C@H]2[C@H]3O[C@H](C[C@@H]3O)[C@@H]2C(=O)Nc2cc(F)cc(C(F)(F)F)c2)c(C(F)(F)F)n1 (racemic) [Example 45, rac-(1R,2R,3S,4R,5S)—N-(3-fluoro-5-(trifluoromethyl)phenyl)-5-hydroxy-3-(1-methyl-3-(trifluoromethyl)-1H-pyrazol-4-yl)-7-oxabicyclo[2.2.1]heptane-2-carboxamide]	7	61	
CCOc1ccc(NC(=O)[C@@H]2[C@@H](c3cccc(C(F)(F)F)c3)[C@H]3O[C@@H]2C[C@@H]3O)cc1C(F)(F)F (racemic) [Example 24, rac-(1R,2R,3S,4R,5S)—N-(4-ethoxy-3-trifluoromethyl)phenyl)-5-hydroxy-3-(3-(trifluoromethyl)phenyl)-7-oxabicyclo[2.2.1]heptane-2-carboxamide]	14	108	
O=C(Nc1ccc(Cl)c(C(F)(F)F)c1)[C@@H]1[C@@H](c2cccc(C(F)(F)F)c2)[C@H]2O[C@@H]1C[C@@H]2O (racemic) [Example 18, rac-(1R,2R,3S,4R,5)-N-(4-chloro-3-(trifluoromethyl)phenyl)-5-hydroxy-3-(3-(trifluoromethyl)phenyl)-7-oxabicyclo[2.2.1]heptane-2-carboxamide]	8	102	
O=C(Nc1ccc(C(F)(F)F)c(Cl)n1)[C@@H]1[C@@H](c2cccc(C(F)(F)F)c2)[C@H]2O[C@@H]1C[C@@H]2O (single isomer, unassigned) [Example 25b, (1R,2R,3S,4R,5S)—N-(6-chloro-5-(trifluoromethyl)pyridin-2-yl)-5-hydroxy-3-(3-(trifluoromethyl)phenyl)-7-oxabicyclo[2.2.1]heptane-2-carboxamide or (1S,2S,3R,4S,5R)—N-(6-chloro-5-(trifluoromethylpyridin-2-yl)-5-hydroxy-3-(3-(trifluoromethyl)phenyl)-7-oxabicyclo[2.2.1]heptane-2-carboxamide]			IC50: 0.84 µM; ALP in NHAC (% Efficacy): 99%
O=C(Nc1ccc(C(F)(F)F)cn1)[C@@H]1[C@@H](c2cccc(C(F)(F)F)c2)[C@H]2O[C@@H]1C[C@@H]2O (racemic) [Example 26, rac-(1R,2R,3S,4R,5S)-5-hydroxy-3-(3-(trifluoromethyl)phenyl)-N-(5-(trifluoromethyl)pyridin-2-yl-7-oxabicyclo[2.2.1]heptane-2-carboxamide]	11	112	
Cn1cc([C@H]2[C@H]3O[C@H](C[C@@H]3O)[C@@H]2C(=O)Nc2ccc(C(F)(F)F)c(Cl)c2)c(C(F)(F)F)n1 (racemic) [Example 58, rac-(1R,2R,3S,4R,5S)—N-(3-chloro-4-(trifluoromethyl)phenyl)-5-hydroxy-3-(1-methyl-3-(trifluoromethyl)-1H-pyrazol-4-yl)-7-oxabicyclo[2.2.1]heptane-2-carboxamide]	10	102	
Cn1cc([C@H]2[C@H]3O[C@H](C[C@@H]3O)[C@@H]2C(=O)Nc2cc(C(F)(F)F)c(Cl)cn2)c(C(F)(F)F)n1 (racemic) [Example 36, rac-(1R,2R,3S,4R,5S)—N-(5-chloro-4-(trifluoromethyl)pyridin-2-yl)-5-hydroxy-3-(1-methyl-3-(trifluoromethyl)-1H-pyrazol-4-yl)-7-oxabicyclo[2.2.1]heptane-2-carboxamide]	3.6	92	
O=C(Nc1cc(C(F)(F)F)cc(Cl)n1)[C@@H]1[C@@H](c2cccc(C(F)(F)F)c2)[C@H]2O[C@@H]1C[C@@H]2O (racemic) [Example 5, rac-(1R,2R,3S,4R,5S)—N-(6-chloro-4-(trifluoromethyl)pyridin-2-yl)-5-hydroxy-3-(3-(trifluoromethyl)phenyl)-7-oxabicyclo[2.2.1]heptane-2-carboxamide]	27	82	
Cn1nc(C(F)(F)F)cc1[C@H]1[C@H]2O[C@H](C[C@@H]2O)[C@@H]1C(=O)Nc1cc(C(F)(F)F)ccc1C#N (racemic) [Example 72, rac-(1R,2R,3S,4R,5S)—N-(2-cyano-5-(trifluoromethyl)phenyl)-5-hydroxy-3-(1-methyl-3-(trifluoromethyl)-1H-pyrazol-5-yl)-7-oxabicyclo[2.2.1]heptane-2-carboxamide]	2.1	72	
Cc1cc(C(F)(F)F)cc(NC(=O)[C@@H]2[C@@H](c3cn(C)nc3C(F)(F)F)[C@H]3O[C@@H]2C[C@@H]3O)n1 (racemic) [Example 41, rac-(1R,2R,3S,4R,5S)-5-hydroxy-3-(1-methyl-3-(trifluoromethyl)-1H-pyrazol-4-yl)-N-(6-methyl-4-(trifluoromethyl)pyridin-2-yl)-7-oxabicyclo[2.2.1]heptane-2-carboxamide]	6.3	61	
Cn1nc(C(F)(F)F)cc1[C@H]1[C@H]2O[C@H](C[C@@H]2O)[C@@H]1C(=O)Nc1cc(C(F)(F)F)ccc1C#N (single isomer, unassigned) [Example 72b, (1R,2R,3S,4R,5S)—N-(2-cyano-5-(trifluoromethyl)phenyl)-5-hydroxy-3-(1-methyl-3-(trifluoromethyl)-1H-pyrazol-5-yl)-7-oxabicyclo[2.2.1]heptane-2-carboxamide or (1S,2S,3R,4S,5R)—N-(2-cyano-5-(trifluoromethyl)phenyl)-5-hydroxy-3-(1-methyl-3-(trifluoromethyl)-1-pyrazol-5-yl)-7-oxabicyclo[2.2.1]heptane-2-carboxamide]			IC50 (listed as 72?): 1.8 µM; ALP in NHAC (% Efficacy) (listed as 72?): 88%
N#Cc1cc(NC(=O)[C@@H]2[C@@H](c3cccc(C(F)(F)F)c3)[C@H]3O[C@@H]2C[C@@H]3O)cc(C(F)(F)F)c1 (racemic) [Example 47, rac-(1R,2R,3S,4R,5S)—N-(3-cyano-5-(trifluoromethyl)phenyl)-5-hydroxy-3-(3-(trifluoromethyl)phenyl)-7-oxabicyclo[2.2.1]heptane-2-carboxamide]	5.5	87	
N#Cc1ccc(C(F)(F)F)cc1NC(=O)[C@@H]1[C@@H](c2cccc(C(F)(F)F)c2)[C@H]2O[C@@H]1C[C@@H]2O (single isomer, unassigned) [Example 48a, (1R,2R,3S,4R,5S)—N-(2-cyano-5-(trifluoromethyl)phenyl)-5-hydroxy-3-(3-(trifluoromethyl)phenyl)-7-oxabicyclo[2.2.1]heptane-2-carboxamide or (1S,2S,3R,4S,5R)—N-(2-cyano-5-(trifluoromethyl)phenyl)-5-hydroxy-3-(3-(trifluoromethyl)phenyl)-7-oxabicyclo[2.2.1]heptane-2-carboxamide]			IC50: 1.5 µM; ALP in NHAC (% Efficacy): 109%
Cc1ccc(NC(=O)[C@@H]2[C@@H](c3cc(C(F)(F)F)nn3C)[C@H]3O[C@@H]2C[C@@H]3O)cc1C(F)(F)F (racemic) [Example 60, rac-(1R,2R,3S,4R,5S)-5-hydroxy-3-(1-methyl-3-(trifluoromethyl)-1H-pyrazol-5-yl)-N-(4-methyl-3-(trifluoromethyl)phenyl)-7-oxabicyclo[2.2.1]heptane-2-carboxamide]	13	81	
CCOc1cc(C(F)(F)F)cc(NC(=O)[C@@H]2[C@@H](c3cn(C)nc3C(F)(F)F)[C@H]3O[C@@H]2C[C@@H]3O)n1 (racemic) [Example 39, rac-(1R,2R,3S,4R,5S)—N-(6-ethoxy-4-(trifluoromethyl)pyridin-2-yl)-5-hydroxy-3-(1-methyl-3-(trifluoromethyl)-1H-pyrazol-4-yl)-7-oxabicyclo[2.2.1]heptane-2-carboxamide]	4	64	
Cn1cc([C@H]2[C@H]3O[C@H](C[C@@H]3O)[C@@H]2C(=O)Nc2cc(C(F)(F)F)ccc2C#N)c(C(F)(F)F)n1 (single isomer, unassigned) [Example 49a, (1R,2R,3S,4R,5N-(2-cyano-5-(trifluoromethyl)phenyl)-5-hydroxy-3-(1-methyl-3-(trifluoromethyl)-1H-pyrazol-4-yl)-7-oxabicyclo[2.2.1]heptane-2-carboxamide or (1S,2S,3R,4S,5R)—N-(2-cyano-5-(trifluoromethyl)phenyl)-5-hydroxy-3-(1-methyl-3-(trifluoromethyl)-1H-pyrazol-4-yl)-7-oxabicyclo[2.2.1]heptane-2-carboxamide]			IC50: 1.9 µM; ALP in NHAC (% Efficacy): 101%

— US12257243B2, “5-hydroxy-7-oxabicyclo[2.2.1]heptane-2-carboxamide derivatives for inducing chondrogenesis for treating joint damage” (NOVARTIS AG, priority 2018, dated 2025)
